Results published in ChEMBL document CHEMBL5729782, “6-heteroaryloxy benzimidazoles and azabenzimidazoles as JAK2 inhibitors” (2023).
“And” between values parts separate entries of the source, which are not always exact repeats. Equal entries are not always repeated.

Assay: Streptavidin-coated magnetic beads were treated with biotinylated small molecule ligands for 30 minutes at room temperature to generate affinity resins for kinase assays. The liganded beads were blocked with excess biotin and washed with blocking buffer (SeaBlock (Pierce), 1% BSA, 0.05% Tween 20, 1 mmol/L DTT) to remove unbound ligand and to reduce nonspecific phage binding. Binding reactions were assembled by combining kinases, liganded affinity beads, and test compounds in 1× binding buffer (1×PBS, 0.05% Tween 20, 0.1% BSA, 1 mmol/L DTT). Test compound was prepared as 111× stocks in 100% DMSO and directly diluted into the assay wells. All reactions were performed in polypropylene 384-well plates in a final volume of 0.02 mL. The assay plates were incubated at room temperature with shaking for 1 hour and the affinity beads were washed with wash buffer (1×PBS, 0.05% Tween 20). The beads were then re-suspended in elution buffer (1×PBS, 0.05% Tween 20, 0.5 μmol/L non-biotinylated affinity ligand) and incubated at room temperature with shaking for 30 minutes. The kinase concentration in the eluate was measured by qPCR.

Q: For CO[C@H]1CCOC[C@@H]1n1cc(C(F)(F)F)cc(Nc2nc3ccc(Oc4ccnc(NC(C)=O)c4)cc3n2C)c1=O, which Kd is on record?
A: Its Kd is less than 10 nM.

Q: For CC(=O)Nc1ccc(Oc2cnc3c(c2)nc(Nc2cc(C(C)(C)C)n([C@H]4CCOC4)n2)n3C)cn1, which Kd is on record?
A: The Kd was less than 10 nM.

Q: Which Kd does the source give for COc1c(Oc2ccnc(NC(=O)C3CC3)c2)cnc2nc(Cc3cc(C4CC4)cn(C)c3=O)n(C)c12 here?
A: The Kd was less than 10 nM.

Q: Which Kd does the source give for COCCN1CC[C@@H](n2nc(NC3Nc4ncc(Oc5ccnc(NC(=O)C6CC6)c5)c(Cl)c4N3C)cc2C(C)(C)C)C1 (some centres not stated) here?
A: The Kd was less than 10 nM.

Q: With COc1c(Oc2ccnc(NC(=O)C3CC3)c2)cnc2nc(Nc3cc(C(C)(C)C)n(C[C@H](C)O)n3)n(C)c12 as the compound, how does the Kd read?
A: The Kd was less than 10 nM.

Q: Which Kd does the source give for COc1c(Oc2ccnc(NC(=O)C3CC3)c2)cnc2nc(Nc3cc(C(C)(C)C)n(C[C@@H](C)O)n3)n(C)c12 here?
A: The Kd was less than 10 nM.

Q: With CC(=O)Nc1cc(Oc2ccc3nc(Nc4cc(C5CC5)cn(C5CCC5O)c4=O)n(C)c3c2)ccn1 (configuration not stated) as the compound, how does the Kd read?
A: Its Kd is < 10 nM (3×) and in the range around 30 nM.

Q: For CC(=O)Nc1cc(Oc2cnc3nc(Nc4cc(C(C)C)n(CC(F)F)n4)n(C)c3c2)ccn1, which Kd is on record?
A: The Kd was less than 10 nM.

Q: Which Kd does the source give for CO[C@H]1CCC1Cn1cc(C2CC2)cc(Nc2nc3ccc(Oc4ccnc(NC(C)=O)c4)cc3n2C)c1=O (some centres not stated) here?
A: Its Kd is less than 10 nM.

Q: For CC(=O)Nc1cc(Oc2cnc3nc(Nc4cc(C(C)C)n(CCF)n4)n(C)c3c2)ccn1, which Kd is on record?
A: The Kd was less than 10 nM.

Q: For CC(=O)Nc1cc(Oc2cnc3nc(Nc4cc(C(C)C)n(CCC#N)n4)n(C)c3c2C)ccn1, which Kd is on record?
A: The Kd was less than 10 nM.

Q: For COc1c(Oc2ccnc(NC(C)=O)c2)cnc2nc(Nc3cc(C(C)(C)C)n(-c4ccn(CC(F)F)c4)n3)n(C)c12, which Kd is on record?
A: Its Kd is less than 10 nM.

Q: Which Kd does the source give for CNC(=O)c1cc(Oc2ccc3nc(Nc4cc(C(C)(C)C)nn4C)n(C)c3c2)ccn1 here?
A: Its Kd is “in the range around 525 nM”.

Q: For COc1c(Oc2ccnc(NC(C)=O)c2)cnc2nc(Nc3nc([C@H]4CCOC4)c(C(C)(C)C)s3)n(C)c12, which Kd is on record?
A: Its Kd is less than 10 nM.

Q: Which Kd does the source give for COc1ccc(Cn2cc(Cc3ccc(Nc4nc5ccc(Oc6ccnc(NC(C)=O)c6)cc5n4C)cc3C(F)(F)F)cn2)cc1 here?
A: The Kd was “in the range around 525 nM”.

Q: For CC(C)(C)OC(=O)N1CC2(CC(n3nc(C(F)(F)F)cc3N)C2)C1, which Kd is on record?
A: Its Kd is less than 10 nM.

Q: Which Kd does the source give for CC(=O)Nc1cc(Oc2cnc3nc(Nc4cc(C5CC5)cn(C)c4=O)n(C)c3c2Cl)ccn1 here?
A: Its Kd is “in the range around 30 nM”.

Q: For COc1c(Oc2ccnc(NC(C)=O)c2)cnc2nc(Nc3nc([C@@H]4CCOC4)c(C(C)(C)C)s3)n(C)c12, which Kd is on record?
A: The Kd was less than 10 nM.

Q: Which Kd does the source give for CC(=O)Nc1cc(Oc2cnc3nc(Nc4cc(C(C)(C)C)n(C[C@H]5CCN(C)CC5(F)F)n4)n(C)c3c2)ccn1 here?
A: Its Kd is “in the range around 3000 nM”.

Q: With CNc1cc(Oc2ccnc(NC(C)=O)c2)cnc1NC(=S)Nc1cc(C2CC2)cn(C)c1=O as the compound, how does the Kd read?
A: Its Kd is less than 10 nM.

Q: With CNc1cc(Oc2ccnc(NC(C)=O)c2)cnc1NC(=S)Nc1cc2n(n1)CCCC2(C)C as the compound, how does the Kd read?
A: Its Kd is less than 10 nM.

Q: With CC(=O)Nc1cc(Oc2ccc3nc(Nc4cc(C5CC5)cn(CC5CC[C@@H]5O)c4=O)n(C)c3c2)ccn1 (some centres not stated) as the compound, how does the Kd read?
A: Its Kd is less than 10 nM.

Q: With CC(=O)Nc1cc(Oc2ccc3nc(Nc4cc(C(F)(F)F)cn(C[C@@H]5COCCO5)c4=O)n(C)c3c2)ccn1 as the compound, how does the Kd read?
A: Its Kd is “in the range around 525 nM”.

Q: Which Kd does the source give for CCCCO[C@H]1C[C@@H](n2nc(Nc3nc4ccc(Oc5ccnc(NC(C)=O)c5)cc4n3C)cc2C(C)(C)C)C1 here?
A: The Kd was less than 10 nM.

Q: Which Kd does the source give for CC(=O)Nc1cc(Oc2cnc3nc(NC4=CC(C(F)(F)F)=CC(C)C4=O)n(C)c3c2Cl)ccn1 (configuration not stated) here?
A: Its Kd is less than 10 nM.

Q: Which Kd does the source give for CC(=O)Nc1cc(Oc2cnc3nc(Nc4cc5n(n4)CCCC5(C)C)n(C)c3c2Cl)ccn1 here?
A: Its Kd is less than 10 nM.

Q: For CC(=O)Nc1cc(Oc2cnc3nc(Nc4cc(C(C)(C)C)n([C@H]5CCC[C@@H]5O)n4)n(C)c3c2)ccn1, which Kd is on record?
A: Its Kd is “in the range around 30 nM”.
